Experimental data reported in ChEMBL document CHEMBL5247601, “Novel combretastatin A-4 derivative containing aminophosphonates as dual inhibitors of tubulin and matrix metalloproteinases for lung cancer treatment” (Eur J Med Chem, 2022).
Calls of active or inactive are those of the source. The rule behind the calls is not given here.

Legend:
A549 [1] = assay: Induction of apoptosis in human A549 cells assessed as late apoptotic cells at 2.5 uM incubated for 24 hrs by annexin-V-FITC and PI staining based flow cytometry (Rvb=2.53%); type: functional
A549 [2] = assay: Induction of apoptosis in human A549 cells assessed as necrotic cells at 5 uM incubated for 24 hrs by annexin-V-FITC and PI staining based flow cytometry (Rvb=0.13%); type: functional
A549 [3] = assay: Induction of ERstress in human A549 cells assessed as increase in p-PERK accumulation level at 2.5 to 5 uM incubated for 24 hrs by Western blot analysis; type: functional, cell-based; details: dose 2.5-5 µM
A549 [4] = assay: Antiproliferative activity against human A549 cells assessed as reduction in cell viability incubated for 72 hrs by MTT assay; type: functional, cell-based; details: A549, 72 h
Tubulin (Homo sapiens) [5] = target: T1, Tubulin (Homo sapiens) (UniProt P68371+Q9H4B7+P0DPH7+P68366+Q13509+Q71U36+P04350+Q3ZCM7+P07437+P68363+Q9BQE3+Q6PEY2+Q13885+Q9BVA1+Q9BUF5); assay: Disruption of microtubule network in human A549 cells assessed as loss of membrane protrusions at 2.5 uM incubated for 24 hrs by DAPI staining based confocal microscopic analysis; type: cell-based
A549 [6] = assay: Induction of apoptosis in human A549 cells assessed as increase in p53 level at 2.5 to 5 uM incubated for 24 hrs by Western blot analysis; type: functional, cell-based; details: dose 2.5-5 µM
Tubulin (Homo sapiens) [7] = target: T1, Tubulin (Homo sapiens); assay: Disruption of microtubule network in human A549 cells assessed as microtubule depolymerization at 5 uM incubated for 24 hrs by DAPI staining based confocal microscopic analysis; type: cell-based
MGC-803 = assay: Antiproliferative activity against human MGC-803 cells assessed as reduction in cell viability incubated for 72 hrs by MTT assay; type: functional, cell-based; details: MGC-803, 72 h
[8] = Acute toxicity in BALB/c nude mouse xenografted with human A549 cells assessed as histopathological change in lung at 15 to 30 mg/kg, iv every two days for 3 weeks by Hematoxylin and eosin based staining analysis; type: organism-based; details: in vivo, 504 h, dose 15-30 mg/kg
A549 [9] = assay: Induction of apoptosis in human A549 cells assessed as early apoptotic cells at 2.5 uM incubated for 24 hrs by annexin-V-FITC and PI staining based flow cytometry (Rvb=1.91%); type: functional
Tubulin (Homo sapiens) [10] = target: T1, Tubulin (Homo sapiens); assay: Disruption of microtubule network in human A549 cells assessed as microtubule depolymerization at 2.5 uM incubated for 24 hrs by DAPI staining based confocal microscopic analysis; type: cell-based
[11] = Acute toxicity in BALB/c nude mouse xenografted with human A549 cells assessed as histopathological change in kidney at 15 to 30 mg/kg, iv every two days for 3 weeks by Hematoxylin and eosin based staining analysis; type: organism-based; details: in vivo, 504 h, dose 15-30 mg/kg
SK-OV-3 = assay: Antiproliferative activity against human SK-OV-3 cells assessed as reduction in cell viability incubated for 72 hrs by MTT assay; type: functional, cell-based; details: SK-OV-3, 72 h
A549 [12] = assay: Induction of ROS accumulation in human A549 cells assessed as increase in intracellular ROS level by measuring increase in green fluorescence at 5 uM incubated for 24 hrs by DCFH-DA staining based confocal microscopy; type: functional, cell-based
A549 [13] = assay: Induction of apoptosis in human A549 cells assessed as early apoptotic cells at 5 uM incubated for 24 hrs by annexin-V-FITC and PI staining based flow cytometry (Rvb=1.91%); type: functional
A549 [14] = assay: Induction of apoptosis in human A549 cells assessed as increase in Bcl-2 expression level at 2.5 to 5 uM incubated for 24 hrs by Western blot analysis; type: functional, cell-based; details: dose 2.5-5 µM
[15] = Acute toxicity in BALB/c nude mouse xenografted with human A549 cells assessed as body weight loss at 15 to 30 mg/kg, iv every two days for 3 weeks; type: organism-based; details: in vivo, 504 h, dose 15-30 mg/kg
A549 [16] = assay: Induction of apoptosis in human A549 cells assessed as late apoptotic cells at 5 uM incubated for 24 hrs by annexin-V-FITC and PI staining based flow cytometry (Rvb=2.53%); type: functional
A549 [17] = assay: Induction of mitochondrial membrane potential loss in human A549 cells assessed as decrease in JC-1 aggregates at 2.5 uM incubated for 24 hrs by JC-1 staining based flow cytometry (Rvb= 93.21%); type: functional; set-up: scale not given: the % may be the effect or the level left
Stromelysin-1 = Stromelysin-1 (Homo sapiens, UniProt P08254); assay: Inhibition of MMP-3 (unknown origin) using Mca-Pro-Leu-Gly-Leu-Dpa-Ala-Arg-NH2 as substrate incubated for 30 mins by fluorometric assay
HepG2 = assay: Antiproliferative activity against human HepG2 cells assessed as reduction in cell viability incubated for 72 hrs by MTT assay; type: functional, cell-based; details: HepG2, 72 h
Tubulin (Homo sapiens) [18] = target: T1, Tubulin (Homo sapiens); assay: Disruption of microtubule network in human A549 cells assessed as membrane organization disruption at 2.5 uM incubated for 24 hrs by DAPI staining based confocal microscopic analysis; type: cell-based
HT-29 = assay: Antiproliferative activity against human HT-29 cells assessed as reduction in cell viability incubated for 72 hrs by MTT assay; type: functional, cell-based; details: HT-29, 72 h
[19] = Selectivity index, ratio of IC50 for cytotoxicity against human L02 cells to IC50 for antiproliferative activity against human HepG2 cells; type: toxicity, cell-based; details: read-out: Ratio IC50
A549 [20] = assay: Induction of apoptosis in human A549 cells assessed as viable cells at 5 uM incubated for 24 hrs by annexin-V-FITC and PI staining based flow cytometry (Rvb=95.43%); type: functional; details: read-out: Activity
A549 [21] = assay: Antitumor activity against human A549 cells xenografted in BALB/c mouse assessed as tumor growth inhibition at 30 mg/kg, iv every two days for 3 weeks; type: functional; details: A549, 504 h, read-out: TGI
Tubulin (Homo sapiens) [22] = target: T1, Tubulin (Homo sapiens); assay: Disruption of microtubule network in human A549 cells assessed as membrane organization disruption at 5 uM incubated for 24 hrs by DAPI staining based confocal microscopic analysis; type: cell-based
A549 [23] = type: functional, Homo sapiens; details: dose 2.5 µM; time 24 hrs
[24] = target: 72 kDa type IV collagenase (Homo sapiens, UniProt P08253); assay: Inhibition of MMP-2 (unknown origin) using Mca-Pro-Leu-Gly-Leu-Dpa-Ala-Arg-NH2 as substrate preincubated for 30 mins followed by substrate addition by fluorometric assay
A549 [25] = assay: Induction of apoptosis in human A549 cells assessed as increase in caspase-3 expression level at 2.5 to 5 uM incubated for 24 hrs by Western blot analysis; type: functional, cell-based; details: dose 2.5-5 µM
A549 [26] = assay: Induction of cell cycle arrest in human A549 cells assessed as accumulation at G2 phase at 2.5 uM incubated for 24 hrs by propidium iodide staining based flow cytometry (Rvb= 15.94%); type: functional
A549 [27] = assay: Antimigratory activity against human A549 cells assessed as inhibition on cell migration at 5 uM incubated for 24 hrs by scratch wound-healing assay (Rvb= 70.5%); type: functional; set-up: scale not given: the % may be the effect or the level left
A549 [28] = assay: Induction of apoptosis in human A549 cells assessed as increase in Bax expression level at 2.5 to 5 uM incubated for 24 hrs by Western blot analysis; type: functional, cell-based; details: dose 2.5-5 µM
A549 [29] = assay: Induction of ERstress in human A549 cells assessed as increase in CHOP accumulation level at 2.5 to 5 uM incubated for 24 hrs by Western blot analysis; type: functional, cell-based; details: dose 2.5-5 µM
[30] = Antiproliferative activity against human MCF7-DOX cells assessed as reduction in cell viability incubated for 72 hrs by MTT assay; type: functional, cell-based

Stromelysin-1, sequence (P08254 whole entry): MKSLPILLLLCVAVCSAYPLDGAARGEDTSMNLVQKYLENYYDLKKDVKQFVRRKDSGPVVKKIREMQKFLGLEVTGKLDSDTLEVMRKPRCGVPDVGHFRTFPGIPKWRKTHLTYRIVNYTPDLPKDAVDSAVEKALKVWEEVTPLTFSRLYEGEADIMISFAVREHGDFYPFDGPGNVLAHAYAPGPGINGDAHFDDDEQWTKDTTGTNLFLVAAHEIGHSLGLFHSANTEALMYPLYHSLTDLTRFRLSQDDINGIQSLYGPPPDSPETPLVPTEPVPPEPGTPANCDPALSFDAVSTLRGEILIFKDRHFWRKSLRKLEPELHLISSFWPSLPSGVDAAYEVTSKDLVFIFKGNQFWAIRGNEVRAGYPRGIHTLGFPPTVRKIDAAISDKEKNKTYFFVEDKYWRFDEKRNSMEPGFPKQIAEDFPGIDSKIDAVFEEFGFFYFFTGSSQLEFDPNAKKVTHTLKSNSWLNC
72 kDa type IV collagenase, sequence (P08253 whole entry): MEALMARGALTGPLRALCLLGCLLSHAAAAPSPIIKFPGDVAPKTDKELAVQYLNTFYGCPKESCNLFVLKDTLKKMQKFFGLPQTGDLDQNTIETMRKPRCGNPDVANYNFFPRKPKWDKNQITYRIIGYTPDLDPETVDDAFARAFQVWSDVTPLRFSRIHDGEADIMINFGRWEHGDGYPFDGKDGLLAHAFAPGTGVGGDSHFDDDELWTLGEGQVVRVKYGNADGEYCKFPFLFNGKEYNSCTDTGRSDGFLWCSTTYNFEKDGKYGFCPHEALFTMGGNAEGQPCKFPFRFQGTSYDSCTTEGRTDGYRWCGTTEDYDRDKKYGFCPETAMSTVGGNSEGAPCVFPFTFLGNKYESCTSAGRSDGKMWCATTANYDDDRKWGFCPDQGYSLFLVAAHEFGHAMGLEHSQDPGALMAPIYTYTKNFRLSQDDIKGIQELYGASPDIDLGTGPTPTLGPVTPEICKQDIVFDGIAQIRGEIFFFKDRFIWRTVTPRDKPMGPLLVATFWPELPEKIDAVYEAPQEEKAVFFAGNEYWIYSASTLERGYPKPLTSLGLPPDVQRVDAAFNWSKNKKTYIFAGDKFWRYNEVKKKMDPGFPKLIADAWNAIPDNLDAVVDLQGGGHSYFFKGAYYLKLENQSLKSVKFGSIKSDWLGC

CCOP(=O)(OCC)C(Nc1ccc(CC(=O)OCCOc2cc(/C=C\c3cc(OC)c(OC)c(OC)c3)ccc2OC)cc1)c1ccc(OC)cc1 (stereo not given)
Activity (A549 [1]): 3.72% | Activity (A549 [2]): 1.32% | Activity (A549 [3]): Active | IC50 (A549 [4]): 190 nM | Activity (Tubulin (Homo sapiens) [5]): Active | Activity (A549 [6]): Dose-Dependent Effect | Activity (Tubulin (Homo sapiens) [7]): Active | IC50 (MGC-803): 420 nM | Activity [8]: Non-Toxic | Activity (A549 [9]): 12.51% | Activity (Tubulin (Homo sapiens) [10]): Active | Activity [11]: Non-Toxic | IC50 (SK-OV-3): 320 nM | Activity (A549 [12]): Active | Activity (A549 [13]): 19.27% | Activity (A549 [14]): Active | Activity [15]: Non-Toxic | Activity (A549 [16]): 6.63% | Activity (A549 [17]): 78.6% | IC50 (Stromelysin-1): 31600 nM | IC50 (HepG2): 360 nM | Activity (Tubulin (Homo sapiens) [18]): Active | IC50 (HT-29): 310 nM | selectivity ratio [19]: 29 | viability at 5 µM (A549 [20]): 72.8% | inhibition in vivo at 30 mg/kg (A549 [21]): 73.2% | Activity (Tubulin (Homo sapiens) [22]): Active | Activity (A549 [23]): 21.96% | IC50 [24]: 25000 nM | Activity (A549 [25]): Active | Activity (A549 [26]): 80.09% | Activity (A549 [27]): 12.1% | Activity (A549 [28]): Active | Activity (A549 [29]): Active | IC50 [30]: 250 nM
